Measured values as given in US7169925B2, “Indole derivatives as interleukin-4 gene expression inhibitors” (Aventis Pharmaceuticals Inc., priority 2002, dated 2007).
Counter-ions that a name gives are not always drawn. Starred links: 1 amine or outer side, 2 acyl side, 3 side chain; linkers in the order of their positions; H or OH if unused. Positions of bridges follow the written chain, without caps; N, C: chain ends. Non-standard residues stand in square brackets, D forms with d. Residues, ends and D or L forms follow the SMILES beside them. Chains are numbered I, II in the order given. Actinocin(9to1) = Cc1c2oc3c(C)ccc(C(=O)[*:1])c3nc-2c(C(=O)[*:2])c(N)c1=O; NMeV = CN[C@H](C(=O)O)C(C)C; Sar = CNCC(=O)O

How the values were obtained:
[1] = system: Swiss 3T3 fibroblasts; experiment: In vitro cytotoxicity assay on contact inhibited, non-dividing 3T3 fibroblasts (MTS); format: cell-based
Description: Other toxicity assays may be used.
Any compound killing 3T3 fibroblast cells was omitted from further studies.
Contact inhibited Swiss 3T3 fibroblasts are purchased from ATCC.
All compound dilutions are assayed in triplicate. […] Cells are returned to the incubator for 2 days.
Media is added to blank wells for background calculations.
Note that starting concentration of CsA was 1 μM.

[2] = Sheep asthma model (Ascaris suum antigen challenge, specific lung resistance, PC400); format: in vivo
Description: Briefly, transpulmonary pressure, pulmonary resistance (RL), specific lung resistance (SRL airway hyper reactivity, airway responsiveness, are determined.
Venous blood samples (˜5 ml) are obtained from a peripheral leg vein or the jugular vein for pharmacokinetic data. Measurement of Airway Mechanics: The unsedated sheep are restrained in a cart in the prone position with their heads immobilized. After topical anesthesia of the nasal passages with 2% lidocaine solution, a balloon catheter is advanced through one nostril into the lower esophagus. The animals are […] with a cuffed endotracheal tube through the other nostril using a flexible fiberoptic bronchoscope as a guide. (The cuff of the endotracheal tube is inflated only for the measurement of airway mechanics and during aerosol challenges to prevent undue discomfort. This procedure has no effect on airway mechanics). Pleural pressure is estimated with the esophageal balloon catheter (filled with one ml of air) which is positioned 5–10 cm from the gastroesophageal junction. In this position the end expiratory pleural pressure ranges between −2 and −5 cm H2O. Once the balloon is placed, it is secured so that it remains in position for the duration of the experiment. Lateral pressure in the trachea is measured with a sidehole catheter (inner dimension, 2.5 mm) advanced through and positioned distal to the tip of the endotracheal tube. Transpulmonary pressure, the difference between tracheal and pleural pressure, is measured with a differential pressure transducer catheter system. […] The signals of flow and transpulmonary pressure is recorded on an oscilloscope recorder which is linked to a computer for on-line calculation of RL from transpulmonary pressure, respiratory volume (obtained by digital integration) and flow. […] Immediately after the measurement of RL, thoracic gas volume (Vtg) is measured in a constant volume body plethysmograph to obtain specific lung resistance (SRL=RL·Vtg) in L×cm H2O/LPS. […]

[3] = Solubility (statement); format: physicochemical
[4] = Oral bioavailability (statement); format: in vivo
[5] = 3 mg/kg aerosol 30 min before antigen challenge, 2 sheep (FIG. 3A)

Row | melting point | SMILES | other results
1 | – | Cc1c2oc3c(C)ccc(C(=O)N[C@@H]4C(=O)N[C@H](C(C)C)C(=O)N5CCC[C@H]5C(=O)N(C)CC(=O)N(C)[C@@H](C(C)C)C(=O)O[C@@H]4C)c3nc-2c(C(=O)N[C@@H]2C(=O)N[C@H](C(C)C)C(=O)N3CCC[C@H]3C(=O)N(C)CC(=O)N(C)[C@@H](C(C)C)C(=O)O[C@@H]2C)c(N)c1=O [Actinomycin D] (I: T[dV]P[Sar][NMeV] / II: T[dV]P[Sar][NMeV]; ester I:1-I:C, II:1-II:C; linker I:N-II:N via Actinocin(9to1)) | viability of quiescent 3T3 cells, % control ([1]; 0.001 μM, 2 day incubation): 79.0 % control; toxic effects on quiescent 3T3 cells (in words) ([1]; non-dividing 3T3 cells): effected the viability
2 | 230 °C (dec.) | NC(=O)c1[nH]c2ccccc2c1Nc1ccncc1 [Example 128, 3-(Pyridin-4-ylamino)-1H-indole-2-carboxamide] | –
3 | 210 to 212 °C | CC(C)(C)OC(=O)c1[nH]c2cccc(F)c2c1Nc1ccncc1 [Example 17, 4-fluoro-3-(4-pyridinylamino)-1H-indole-2-carboxylic tert-butyl ester] | –
4 | – | C[C@@H]1C[C@H]2[C@@H]3CCC4=CC(=O)C=C[C@]4(C)[C@@]3(F)[C@@H](O)C[C@]2(C)[C@@]1(O)C(=O)CO [Dexamethasone] | viability of quiescent 3T3 cells, % control ([1]; mouse, 2 days, 0.001 μM): 100.0 % control
5 | 154 to 155 °C | CCOC(=O)c1c(Nc2ccncc2)c2ccc(Cl)cc2n1C [Example 27, 6-Chloro-1-methyl-3-(4-pyridinylamino)-1H-indole-2-carboxylic ethyl ester] | –
6 | 197 to 199 °C | Cn1c(C(=O)O)c(Nc2ccncc2)c2c(F)cccc21 (as salt: trifluoroacetate) [Example 31, 4-Fluoro-1-Methyl-3-(4-pyridinylamino)-1H-indole-2-carboxylic acid Trifluoroacetate Salt] | –
7 | 192 to 194 °C (dec.) | Cn1c(C(=O)O)c(Nc2ccncc2)c2ccccc21.O=C(O)/C=C\C(=O)O | –
8 | 217 to 219 °C | COc1ccc2[nH]c(C(=O)OC(C)(C)C)c(Nc3ccncc3)c2c1 [Example 21, 5-methoxy-3-(4-pyridinylamino)-1H-indole-2-carboxylic tert-butyl ester] | –
9 | 234 to 235 °C | O=C(Nc1c(C(=O)O)[nH]c2cc(Cl)cc(Cl)c12)c1ccccc1Cc1ccccc1 [Example 87, 3-((2-Benzylbenzoyl)amino)-4,6-dichloro-1H-indole-2-carboxylic acid] | –
10 | 279 to 283 °C | CN(C(=O)c1ccc(Cl)cc1)c1c(C(=O)O)[nH]c2cc(Cl)cc(Cl)c12 [Example 80, 3-((4-chlorobenzoyl)methylamino)-4,6-dichloro-1H-indole-2-carboxylic acid] | –
11 | – | CN(Cc1cnc2nc(N)nc(N)c2n1)c1ccc(C(=O)N[C@@H](CCC(=O)O)C(=O)O)cc1 [Methotrexate] | viability of quiescent 3T3 cells, % control ([1]; mouse, 2 days, 0.03 μM): 100.0 % control
12 | 270 to 280 °C | CN(C(=O)c1cccc(F)c1)c1c(C(=O)O)[nH]c2cc(Cl)cc(Cl)c12 [Example 88, 3-((3-Fluorobenzoyl)methylamino)-4,6-dichloro-1H-indole-2-carboxylic acid] | –
13 | – | O=C(O)c1[nH]c2ccccc2c1Nc1ccncc1 [Example 28, 3-(4-Pyridinylamino)-1H-indole-2-carboxylic acid] | antigen-induced early bronchial response: acute increase in specific lung resistance (SRL) [2, 5]: did not affect; antigen-induced late bronchial response (SRL) [2, 5]: blocked the late response; post challenge airway responsiveness (decrease of PC400 after antigen challenge) ([2]; 3 mg/kg, 2 sheep (FIG. 3B)): prevented this effect; solubility (in words) [3]: relatively low solubility; oral bioavailability (in words) [4]: low oral bioavailability
14 | 212 to 214 °C | CCOC(=O)c1c(Nc2ccncc2)c2ccc(Cl)cc2n1CC(=O)N(CC)CC [Example 34, 6-Chloro-1-diethylcarbamoylmethyl-3-(pyridin-4-ylamino)-1H-indole-2-carboxylic acid ethyl ester] | –
15 | 211 to 213 °C | COc1ccc2[nH]c(C(=O)O)c(Nc3ccncc3)c2c1 (as salt: trifluoroacetate) | –
16 | 231 to 234 °C (dec.) | O=C(O)c1[nH]c2cccc(F)c2c1Nc1ccncc1 (as salt: trifluoroacetate) | –
